Here are results for 14 molecules from ChEMBL document CHEMBL2021793, “Synthesis, biological evaluation and structure-activity relationships of glycyrrhetinic acid derivatives as novel anti-hepatitis B virus agents” (Bioorg Med Chem Lett, 2012).

The structures appear in SMILES notation. A value given as a limit tells only on which side of the number the result lay.

The nature of data set [1]: Selectivity index, ratio of CC50 for human HepG2(2.2.15) cells to IC50 for HBV by viral DNA replication detection assay. The class given is functional.
Data set [2] in a line: Selectivity index, ratio of CC50 for human HepG2(2.2.15) cells to IC50 for HBV by hepatitis B surface antigen release detection assay. The data set is classed as functional.
Data set [3] can be described thus: Cytotoxicity against human HepG2(2.2.15) cells. The class given is cell-based.
The test system of data set [4] is Hepatitis B virus. Put plainly: Antiviral activity against Hepatitis B virus infected in human HepG2(2.2.15) cells assessed as reduction in hepatitis B surface antigen release. The data set is classed as functional, organism-based.
In data set [5] the test system is Hepatitis B virus. Put plainly: Antiviral activity against Hepatitis B virus infected in human HepG2(2.2.15) cells assessed as reduction in hepatitis B e-antigen release. The data set is classed as functional, organism-based.
The subject of data set [6] is Hepatitis B virus. As to the kind of experiment: Antiviral activity against Hepatitis B virus infected in human HepG2(2.2.15) cells assessed as reduction in viral DNA replication. The class given is functional, organism-based.
A short description of data set [7]: Selectivity index, ratio of CC50 for human HepG2(2.2.15) cells to IC50 for HBV by hepatitis B e-antigen release detection assay. The data set is classed as functional.

As a reminder, the CC50 is the concentration that lowers cell viability or growth by half. Higher therefore signals better tolerance by the cells. Broadly, the IC50 is the midpoint of a concentration-inhibition curve. With `CC1(C)[C@@H](O)CC[C@]2(C)[C@H]3C(=O)C=C4[C@@H]5C[C@@](C)(C(=O)OCc6cccc(F)c6)CC[C@]5(C)CC[C@@]4(C)[C@]3(C)CC[C@@H]12`, the “Ratio CC50/IC50” value in data set [1] is recorded as above 67.2; in data set [2], above 2.2. Also, in data set [3], the CC50 was above 1310 µM. Further, the 50% inhibitory concentration (IC50) in the data set with Hepatitis B virus [4] was 588 µM; in the data set on Hepatitis B virus [5], above 1310 µM; in the data set with Hepatitis B virus [6] it was 19.5 µM.

For `CC1(C)[C@@H](O)CC[C@]2(C)[C@H]3C(=O)C=C4[C@@H]5C[C@@](C)(C(=O)OCc6ccc(S(C)(=O)=O)cc6)CC[C@]5(C)CC[C@@]4(C)[C@]3(C)CC[C@@H]12`, the entries for the “Ratio CC50/IC50” value in data set [1] and in data set [2] were 48.3 and 18.8, respectively. The molecule further showed a CC50 in data set [3] of 1030 µM. Also, the 50% inhibitory concentration (IC50) with Hepatitis B virus [4] was 54.4 µM; in the data set with Hepatitis B virus [5], above 1210 µM; in the data set on Hepatitis B virus [6], 21.2 µM.

`CC1(C)[C@@H](O)CC[C@]2(C)[C@H]3C(=O)C=C4[C@@H]5C[C@@](C)(C(=O)OCc6ccc([N+](=O)[O-])cc6)CC[C@]5(C)CC[C@@]4(C)[C@]3(C)CC[C@@H]12`: the results for the “Ratio CC50/IC50” value in data set [1] and in data set [2] were above 149.2 and above 2.2, respectively. The 50% cytotoxic concentration (CC50) in data set [3] was above 1330 µM. The half-inhibitory concentration (IC50) with Hepatitis B virus [4] is 606 µM; in the data set with Hepatitis B virus [5] it was above 1330 µM; in the data set with Hepatitis B virus [6], 8.9 µM.

Consider `CC1(C)[C@@H](O)CC[C@]2(C)[C@H]3C(=O)C=C4[C@@H]5C[C@@](C)(C(=O)OCc6ccc(-n7cccn7)cc6)CC[C@]5(C)CC[C@@]4(C)[C@]3(C)CC[C@@H]12`, for which the “Ratio CC50/IC50” value stood at 83.6 in data set [1] and 2.1 in data set [2]. The molecule also came in with a half-maximal cytotoxic concentration (CC50) in data set [3] of 1990 µM. In addition, the IC50 is 927 µM in the data set on Hepatitis B virus [4], above 2060 µM in the data set on Hepatitis B virus [5] and 23.7 µM in the data set on Hepatitis B virus [6].

For the molecule `Cc1nc(COC(=O)[C@@]2(C)CC[C@]3(C)CC[C@]4(C)C(=CC(=O)[C@@H]5[C@@]6(C)CC[C@H](O)C(C)(C)[C@@H]6CC[C@]54C)[C@@H]3C2)cs1`, the “Ratio CC50/IC50” value in data set [1] is on record as 4.1; in data set [2] it was 1. Besides, it took 37.2 µM to reach half-maximal cytotoxicity in data set [3] (CC50). Moreover, the concentration for half-maximal inhibition (IC50) with Hepatitis B virus [4] is 36.3 µM; in the data set with Hepatitis B virus [5], above 1480 µM; in the data set with Hepatitis B virus [6], 9.08 µM.

Regarding `CC1(C)[C@@H](O)CC[C@]2(C)[C@H]3CC=C4[C@@H]5C[C@@](C)(C(=O)OCC(N)=O)CC[C@]5(C)CC[C@@]4(C)[C@]3(C)CC[C@@H]12`, the “Ratio CC50/IC50” value is given as 7.3 in data set [1] and 1.4 in data set [2]. Besides, the 50% cytotoxic concentration (CC50) in data set [3] was 472 µM. Further, the IC50 was 347 µM with Hepatitis B virus [4], above 1110 µM in the data set with Hepatitis B virus [5] and 64.9 µM in the data set on Hepatitis B virus [6].

With `COc1cc(/C=C/C(=O)O[C@H]2CC[C@]3(C)[C@H]4CC=C5[C@@H]6C[C@@](C)(C(=O)OCC(N)=O)CC[C@]6(C)CC[C@@]5(C)[C@]4(C)CC[C@H]3C2(C)C)cc(OC)c1OC`, the “Ratio CC50/IC50” value in data set [7] was above 1.9; in data set [2] it was above 2.1. Moreover, in data set [3], the CC50 is above 481 µM. In addition, the IC50 in the data set on Hepatitis B virus [4] was 230 µM; with Hepatitis B virus [5] it was 252 µM; in the data set with Hepatitis B virus [6], above 120 µM.

For `CCCC(=O)O[C@H]1CC[C@]2(C)[C@H]3C(=O)C=C4[C@@H]5C[C@@](C)(C(=O)O)CC[C@]5(C)CC[C@@]4(C)[C@]3(C)CC[C@H]2C1(C)C`, the “Ratio CC50/IC50” value in data set [1] came out at 2.5; in data set [7] it was 3.2. The same molecule returned a CC50 in data set [3] of 119 µM. Also, the IC50 turned out to be 370 µM in the data set with Hepatitis B virus [4], 37 µM in the data set on Hepatitis B virus [5] and 48.2 µM in the data set on Hepatitis B virus [6].

On to `COc1cc(/C=C/C(=O)O[C@H]2CC[C@]3(C)[C@H]4C(=O)C=C5[C@@H]6C[C@@](C)(C(=O)O)CC[C@]6(C)CC[C@@]5(C)[C@]4(C)CC[C@H]3C2(C)C)cc(OC)c1OC`, for which the “Ratio CC50/IC50” value in data set [1] is above 9.7; in data set [7] it was above 5. The molecule further returned a 50% cytotoxic concentration (CC50) in data set [3] above 1160 µM. Besides, the figures for the IC50 in the data set with Hepatitis B virus [4], with Hepatitis B virus [5] and with Hepatitis B virus [6] were above 1160 µM, 232 µM and 120 µM, respectively.

With `CCOC(=O)CCCOC(=O)[C@@]1(C)CC[C@]2(C)CC[C@]3(C)C(=CC(=O)[C@@H]4[C@@]5(C)CC[C@H](O)C(C)(C)[C@@H]5CC[C@]43C)[C@@H]2C1`, the “Ratio CC50/IC50” value was 1.7 in data set [1] and 1.4 in data set [2]. This molecule also gave a CC50 in data set [3] of 53.3 µM. In addition, the results for the IC50 in the data set on Hepatitis B virus [4], with Hepatitis B virus [5] and with Hepatitis B virus [6] were 38.2 µM, 56.8 µM and 30.9 µM, respectively.

For the molecule `CC1(C)[C@@H](O)CC[C@]2(C)[C@H]3CC=C4[C@@H]5C[C@@](C)(C(=O)O)CC[C@]5(C)CC[C@@]4(C)[C@]3(C)CC[C@@H]12`, the “Ratio CC50/IC50” value in data set [1] came to 3.4; in data set [2], 3.3. Further, in data set [3], the CC50 stood at 162 µM. Besides, the IC50 in the data set with Hepatitis B virus [4] was 48.7 µM; in the data set with Hepatitis B virus [5], above 1370 µM; in the data set on Hepatitis B virus [6], 47 µM.

For the molecule `CC1(C)[C@@H](O)CC[C@]2(C)[C@H]3C(=O)C=C4[C@@H]5C[C@@](C)(C(=O)O)CC[C@]5(C)CC[C@@]4(C)[C@]3(C)CC[C@@H]12` [ENOXOLONE], the “Ratio CC50/IC50” value is listed as 1.4 in data set [1] and 2.6 in data set [2]. It took 55.1 µM to reach half-maximal cytotoxicity in data set [3] (CC50). Moreover, the 50% inhibitory concentration (IC50) in the data set with Hepatitis B virus [4] was determined as 20.9 µM; with Hepatitis B virus [5], 130 µM; in the data set with Hepatitis B virus [6] it was 39.3 µM.

With `CCC(=O)O[C@H]1CC[C@]2(C)[C@H]3C(=O)C=C4[C@@H]5C[C@@](C)(C(=O)O)CC[C@]5(C)CC[C@@]4(C)[C@]3(C)CC[C@H]2C1(C)C` [GLYCYRRHETINIC ACID PROPIONATE], the “Ratio CC50/IC50” value was found to be 2.2 in data set [1] and 2 in data set [7]. The molecule further registered a CC50 in data set [3] of 99.6 µM. Further, the concentration for half-maximal inhibition (IC50) in the data set on Hepatitis B virus [4] came out at 1360 µM; in the data set on Hepatitis B virus [5], 49.2 µM; in the data set with Hepatitis B virus [6] it was 44.4 µM.

`C[C@H](Cn1cnc2c(N)ncnc21)OCP(=O)(O)O` [TENOFOVIR ANHYDROUS]: the “Ratio CC50/IC50” value in data set [1] was above 1973.4; in data set [7], above 1.4; in data set [2], above 1.2. This molecule yielded a CC50 in data set [3] above 1760 µM. For the same molecule, the half-maximal inhibitory concentration (IC50) in the data set with Hepatitis B virus [6] is 0.89 µM.
